Experiments:
Settings in all cases: mean ± SD, n = 3
[1] = ABTS radical scavenging test
Protocol: (§1) All the procedures were previously detailed. The Relative Antioxidant Capacity Index (RACI) was applied to evaluate the sample characterized by the highest activity. Linear regression, assessment of repeatability, calculation of average, relative standard deviation (SD), and Pearson’s correlation coefficient (r) were calculated by using Microsoft Excel 2010 software (Redmond, WA, USA). The results were expressed as the means of three different experiments ± SD.

[2] = DPPH radical scavenging test
Protocol: as §1

[3] = β-carotene bleaching test
Protocol: as §1

ABTS Test (IC50) [1] [µg/mL] | DPPH Test (IC50) [2] [µg/mL] | β-Carotene Bleaching Test (IC50) [3] [µg/mL] | SMILES
1.72 ± 0.14 | 5.04 ± 0.81 |  | O=C1O[C@H]([C@@H](O)CO)C(O)=C1O [Ascorbic acid]
 |  | 0.09 ± 0.04 | CCCOC(=O)c1cc(O)c(O)c(O)c1 [Propyl gallate]
